# How the values were obtained:
# Format in all cases: cell-based
# A2780 = assay: WST-1 cytotoxicity, 72 h
# Description: Cells were seeded in 96-well flat-bottom culture plates at a concentration of 1000 cells per well. […] After 72 h, the medium was removed and replaced with new medium. The cell viability reagent WST-1 (10 µL, Roche Diagnostics, Indianapolis, IN, USA) was added to each well. After an hour, the absorbance was measured at 450 nm using a versatile microplate reader (Bio-strategy, Campbellfield, VIC, Australia). Three separate experiments were performed, each with n = 3 replicates. GraphPad prism 10 was used to calculate apparent IC50 values using the nonlinear regression model Y = Bottom + (Top-Bottom)/(1 + 10^(X-LogIC50)) where Top and bottom are plateaus in the y-axis (% survival).
# HT29 spheroids = assay: 3D bioprinted spheroid cytotoxicity (WST-1); settings: 72 h, mean ± SEM
# Source text: (§1) To evaluate the cytotoxic effect of platinum(II) and (IV) complexes in 3D cell culture, MDA−MB−231 or HT29 cells were used to bioprint networks or spheroids with the non-contact drop-on-demand 3D RASTRUM bioprinter (Inventia Life Science, Alexandria, NSW, Australia). The 3D cultures use two constituents: bioink and activator. Cell pellets (2 × 10^6 cells) were resuspended in an activator reagent which forms an instant gel after its addition to the bioink by the bioprinter. The 3D large plug cell model with polyethylene glycol bioinks formulated to mimic the properties of in vivo tissue were chosen as follows. Matrix Px02.31 (activator F177 and bioink F242 with RGD: Fibronectin) was used for MDA−MB−231 3D embedded networks, Px02.00 (activator F177 and bioink F119 without RGD additives, Table S1) was used for MDA−MB−231 spheroids and matrix #Px02.09 (activator F177 and bioink F236 with adhesion peptides including, RGD: Fibronectin, and GFOGER: collagen type I to recapitulate rich in vivo tissue extracellular environments) was used for HT29 spheroids (Inventia Life Science) (Table S1). Each cell line was printed at 10,000 cells/well and loaded with the bioink fluids into the selected printer cartridge. After the automated priming of all fluids into the printer nozzles, each cell line was individually printed on tissue culture plates (Nunc^TM MicroWell^TM 96-Well, Nunclon Delta-Treated, Flat-Bottom Microplate, ThermoFisher #167008), with RASTRUM creating the 3D Large Plug across the 96-well plate. Following completion of the print run, 200 μL DMEM culture medium was added to each well using multichannel pipettes. The plate was then incubated for 7 days (humidified incubator with 5% CO2 at 37 °C) for compact and homogenous spheroid formation before the cytotoxicity assay. When the spheroids developed, post-7-day incubation, media was removed and replaced with 100 µL DMEM. […] Cytotoxicity was then assessed using the WST-1 assay as previously described in Section 2.3.
# MDA−MB−231 spheroids = assay: 3D bioprinted spheroid cytotoxicity (WST-1); settings: 72 h, mean ± SEM
# Source text: as §1
# MDA−MB−231 cells = assay: Western blot protein expression; settings: MDA−MB−231, IC50, 72 h
# Description: (§2) Protein extraction was then performed on ice. Media were collected in Eppendorf tubes, and centrifuged at 500× g for 5 min at 4 °C. Meanwhile, 200 µL of lysis RIPA buffer, made up of 150 mM NaCl, 50 mM Tris-HCl, pH 8.0, 0.1% Triton X-100, 0.5% sodium deoxycholate, 0.1% SDS and 1 mM sodium orthovanadate, was added to each well, the cells were scrapped into the buffer, and added to the media-derived pellets. The tubes were placed on the shaker for 10 min at 4 °C. Then, cell extracts were centrifuged at 12,000× g for 15 min at 4 °C, and the supernatants (containing the proteins) were collected. The Bio-Rad-DC protein assay (Bio-Rad, Hercules, CA, USA) was used to assess protein content. Laemmli protein sample buffer (4×) with β-mercaptoethanol (9%) was used to prepare a final protein concentration of 20 µg. The samples were then heated at 100 °C for 5 min. A final volume of 30 µL of each sample was added per well and subjected to SDS-PAGE using Bolt 4–12% Bis-Tris gel (Thermo Fisher, Eugene, OR, USA) at 80 V for 30 min and then 120 V for 60 min with PageRuler™ Prestained Protein or SeeBlue Prestained Protein Ladder (Thermo Fisher, Eugene, OR, USA). Proteins were subsequently transferred to a 0.2 µm PVDF membrane (Amersham, Cytiya) using a semi-dry blot transfer. The membrane was then blocked in 5% BSA in TBST, for 1 h and probed overnight at 4 °C with primary antibodies against several cell proliferation, apoptotic, anti-apoptotic, microtubule and autophagic protein markers listed in Table S7 as per the manufacturer’s protocol. The primary antibody was then removed, washed three times for 10 min with TBST and then membranes were treated with either mouse or rabbit HRP-coupled secondary antibodies (1/3000) for 1 h and 30 min. Protein band detection was then performed using the chemiluminescence ECL kit (Thermo Fisher, Eugene, OR, USA). Blot images were obtained using the Odyssey® FC imaging system (LI-COR Biosciences, Lincoln, NE, USA) and band intensities were quantified relatively to glyceraldehyde-3-phosphate dehydrogenase (GAPDH) and then normalised each replicate gel to its corresponding no treatment control using the ImageJ v1.53t software (National Institutes of Health, Bethesda, MD, USA). Each marker results from the same experiment or parallel experiment where the gels were processed in parallel. Three independent experiments per marker were conducted.
# HT29 cells = assay: Western blot protein expression; settings: HT29, IC50, 72 h
# Description: as §2
# [1] = representative blot Figure S30G
# [2] = representative blot Figure S30H
smiles,measurement,setting,value
"Cc1cc2cccnc2c2ncccc12.N[C@H]1CCCC[C@@H]1N.O=[N+]([O-])[O-].O=[N+]([O-])[O-].[Pt+2] [Pt^II5MESS, [Pt(5-methyl-1,10-phenanthroline)(1S,2S-diaminocyclohexane)](NO3)2]",potency relative to cisplatin,"A2780; A2780, 72 h",33 fold
same,IC50,"A2780; A2780, 72 h, mean ± SEM",650 ± 1710 nM
same,Selective cytotoxicity index (SCI),A2780; IC50 MCF10A/IC50 A2780,1.82
same,IC50,HT29 spheroids,2910 ± 1390 nM
same,IC50,MDA−MB−231 spheroids,4080 ± 1370 nM
same,β-actin/GAPDH normalized to control (1),MDA−MB−231 cells; representative blot Figure S24A,0.7082
same,β-tubulin/GAPDH normalized to control (1),MDA−MB−231 cells; representative blot Figure S24B,0.4163
same,α-tubulin/GAPDH normalized to control (1),MDA−MB−231 cells; representative blot Figure S24C,0.6399
same,p-AKT/AKT/GAPDH normalized to control (1),MDA−MB−231 cells; representative blot Figure S25A,0.5388
same,p-ERK/ERK/GAPDH normalized to control (1),MDA−MB−231 cells; representative blot Figure S25B,0.5947
same,p53/GAPDH normalized to control (1),MDA−MB−231 cells; representative blot Figure S25C,0.7809
same,p21/GAPDH normalized to control (1),MDA−MB−231 cells; representative blot Figure S25D,2.478
same,Bax/GAPDH normalized to control (1),MDA−MB−231 cells; representative blot Figure S26A,1.886
same,Bcl2/GAPDH normalized to control (1),MDA−MB−231 cells; representative blot Figure S26B,0.5074
same,Cytochrome C/GAPDH normalized to control (1),MDA−MB−231 cells; representative blot Figure S26C,1.513
same,Procaspase 8/GAPDH normalized to control (1),MDA−MB−231 cells; representative blot Figure S26D,0.5099
same,Cleaved BID/GAPDH normalized to control (1),MDA−MB−231 cells; representative blot Figure S26E,14.29
same,Procaspase 9/GAPDH normalized to control (1),MDA−MB−231 cells; representative blot Figure S26F,0.3101
same,Procaspase 3/GAPDH normalized to control (1),MDA−MB−231 cells; representative blot Figure S26G,0.5405
same,PARP-1/GAPDH normalized to control (1),MDA−MB−231 cells; representative blot Figure S26H,0.7693
same,Beclin1/GAPDH normalized to control (1),MDA−MB−231 cells; representative blot Figure S27A,2.588
same,ATG5/GAPDH normalized to control (1),MDA−MB−231 cells; representative blot Figure S27B,0.5948
same,ATG16L1/GAPDH normalized to control (1),MDA−MB−231 cells; representative blot Figure S27C,0.4742
same,ATG9A/GAPDH normalized to control (1),MDA−MB−231 cells; representative blot Figure S27D,0.2882
same,ATG4B/GAPDH normalized to control (1),MDA−MB−231 cells; representative blot Figure S27E,1.839
same,LC3B/GAPDH normalized to control (1),MDA−MB−231 cells; representative blot Figure S27F,0.9366
same,β-actin/GAPDH normalized to control (1),HT29 cells; representative blot Figure S28A,0.2979
same,β-tubulin/GAPDH normalized to control (1),HT29 cells; representative blot Figure S28B,0.1238
same,α-tubulin/GAPDH normalized to control (1),HT29 cells; representative blot Figure S28C,0.06789
same,p-AKT/AKT/GAPDH normalized to control (1),HT29 cells; representative blot Figure S29A,0.07338
same,p-ERK/ERK/GAPDH normalized to control (1),HT29 cells; representative blot Figure S29B,0.7076
same,p53/GAPDH normalized to control (1),HT29 cells; representative blot Figure S29C,1.275
same,p21/GAPDH normalized to control (1),HT29 cells; representative blot Figure S29D,1.147
same,Bax/GAPDH normalized to control (1),HT29 cells; representative blot Figure S30A,1.624
same,Bcl2/GAPDH normalized to control (1),HT29 cells; representative blot Figure S30B,0.09591
same,Cyt C/GAPDH normalized to control (1),HT29 cells; representative blot Figure S30C,3.741
same,Procaspase 8/GAPDH normalized to control (1),HT29 cells; representative blot Figure S30D,0.2934
same,Cleaved BID/GAPDH normalized to control (1),HT29 cells; representative blot Figure S30E,1.69
same,Procaspase 9/GAPDH normalized to control (1),HT29 cells; representative blot Figure S30F,0.1393
same,Cleaved caspase 3/GAPDH normalized to control (1),HT29 cells; [1],10.88
same,Procaspase 3/GAPDH normalized to control (1),HT29 cells; [1],0.7678
same,Cleaved PARP-1/GAPDH normalized to control (1),HT29 cells; [2],11.42
same,PARP-1/GAPDH normalized to control (1),HT29 cells; [2],0.2554
same,Beclin1/GAPDH normalized to control (1),HT29 cells; representative blot Figure S31A,3.11
same,ATG5/GAPDH normalized to control (1),HT29 cells; representative blot Figure S31B,0.9969
same,ATG16L1/GAPDH normalized to control (1),HT29 cells; representative blot Figure S31C,1.285
same,ATG9A/GAPDH normalized to control (1),HT29 cells; representative blot Figure S31D,0.4486
same,ATG4B/GAPDH normalized to control (1),HT29 cells; representative blot Figure S31E,0.7306
same,LC3B/GAPDH normalized to control (1),HT29 cells; representative blot Figure S31F,1.207

# Reference: PMC11274883, “Anticancer Effect of Pt^[sequence], Pt^II5MESS, Pt^II56MESS and Their Platinum(IV)-Dihydroxy Derivatives against Triple-Negative Breast Cancer and Cisplatin-Resistant Colorectal Cancer” (Cancers, 2024)
